According to paper PMC6274419, “Synthesis and Anticancer Activities of Glycyrrhetinic Acid Derivatives” (Molecules, 2016):
Counter-ions that a name gives are not always drawn.

Columns and labels:
MDA-MB-231 cells = test: MTT cytotoxicity assay, MDA-MB-231; assay type: cell-based, human; details: human breast cancer cell line MDA-MB-231, MTT method, 24 h treatment, mean ± SD; read-out: IC50 MDA-MB-231
Description: The data was calculated and presented as IC50 values in Table 1.
(§1) The cytotoxicities of the compounds were evaluated by the MTT assay, which is based on the conversion of MTT to formazan crystals by mitochondrial dehydrogenases. […] The medium was incubated with 20 μL of 5 mg/mL MTT solution for 3 h in a humidified incubator containing 5% CO2. The purple coloured formazan crystals formed in the wells were dissolved in DMSO and their absorbances were measured at 570 nm with a microplate reader. Cell viability was expressed as a percentage of the value in control cultures.

hTERT-RPE1 cells = test: MTT cytotoxicity assay, hTERT-RPE1 normal cells; assay type: cell-based, human; details: normal human retinal pigment epithelial cell line hTERT-RPE1, MTT method, 24 h treatment, mean ± SD; read-out: IC50 hTERT-RPE1
Description: (§2) The anticancer activities of compounds 17–24, 41–56 against MCF-7, MDA-MB-231 and hTERT-RPE1 cells were determined in vitro by an MTT assay. […] The data was calculated and presented as IC50 values in Table 1.
as §1

MCF-7 cells = test: MTT cytotoxicity assay, MCF-7; assay type: cell-based, human; details: MCF7; human breast cancer cell line MCF-7, MTT method, 24 h treatment, mean ± SD; read-out: IC50 MCF-7
Description: as §2, §1

Compound	IC50 (MDA-MB-231 cells)	IC50 (hTERT-RPE1 cells)	IC50 (MCF-7 cells)	melting point
COC(=O)/C=C/c1ccc(OC(=O)[C@@]2(C)CC[C@]3(C)CC[C@]4(C)C(=CC(=O)[C@@H]5[C@@]6(C)CC[C@H](O)C(C)(C)[C@@H]6CC[C@]54C)[C@@H]3C2)c(OC)c1 [Compound 17, Ferulic acid methyl ester 3β-hydroxy-11-oxo-olean-12-en-30-oate]	5.03 ± 0.82 µM	17.3 ± 1.21 µM	13.6 ± 0.93 µM	229 to 231 °C
COC(=O)/C=C/c1cccc(OC(=O)[C@@]2(C)CC[C@]3(C)CC[C@]4(C)C(=CC(=O)[C@@H]5[C@@]6(C)CC[C@H](OC(=O)[C@@H](N)CC[Se]C)C(C)(C)[C@@H]6CC[C@]54C)[C@@H]3C2)c1 (as salt: hydrochloride) [Compound 54, trans-3-Hydroxycinnamic acid methyl ester 3β-(l-selenomethionine)-11-oxo-olean-12-en-30-oate hydro-chloride]	–	–	–	194 to 196 °C
COC(=O)/C=C/c1cccc(OC(=O)[C@@]2(C)CC[C@]3(C)CC[C@]4(C)C(=CC(=O)[C@@H]5[C@@]6(C)CC[C@H](O)C(C)(C)[C@@H]6CC[C@]54C)[C@@H]3C2)c1 [Compound 23, trans-3-Hydroxycinnamic acid methyl ester 3β-hydroxy-11-oxo-olean-12-en-30-oate]	20.8 ± 1.2 µM	24.1 ± 0.88 µM	14.9 ± 0.75 µM	188 to 190 °C
COC(=O)/C=C/c1ccc(OC(=O)[C@@]2(C)CC[C@]3(C)CC[C@]4(C)C(=CC(=O)[C@@H]5[C@@]6(C)CC[C@H](OC(=O)[C@@H](N)CC[Se]C)C(C)(C)[C@@H]6CC[C@]54C)[C@@H]3C2)c(OC)c1 (as salt: hydrochloride) [Compound 42, Ferulic acid methyl ester 3β-(l-selenomethionine)-11-oxo-olean-12-en-30-oate hydrochloride]	–	–	–	210 to 213 °C
CCOC(=O)/C=C/c1cccc(OC(=O)[C@@]2(C)CC[C@]3(C)CC[C@]4(C)C(=CC(=O)[C@@H]5[C@@]6(C)CC[C@H](OC(=O)[C@@H](N)CCSC)C(C)(C)[C@@H]6CC[C@]54C)[C@@H]3C2)c1 (as salt: hydrochloride) [Compound 55, trans-3-Hydroxycinnamic acid ethyl ester 3β-(l-methionine)-11-oxo-olean-12-en-30-oate hydrochloride]	–	–	–	183 to 185 °C
CCOC(=O)/C=C/c1ccc(OC)c(OC(=O)[C@@]2(C)CC[C@]3(C)CC[C@]4(C)C(=CC(=O)[C@@H]5[C@@]6(C)CC[C@H](OC(=O)[C@@H](N)CC[Se]C)C(C)(C)[C@@H]6CC[C@]54C)[C@@H]3C2)c1 (as salt: hydrochloride) [Compound 52, Isoferulic acid ethyl ester 3β-(l-selenomethionine)-11-oxo-olean-12-en-30-oate hydrochloride]	–	–	–	196 to 198 °C
CCOC(=O)/C=C/c1ccc(OC(=O)[C@@]2(C)CC[C@]3(C)CC[C@]4(C)C(=CC(=O)[C@@H]5[C@@]6(C)CC[C@H](OC(=O)[C@@H](N)CCSC)C(C)(C)[C@@H]6CC[C@]54C)[C@@H]3C2)c(OC)c1 (as salt: hydrochloride) [Compound 43, Ferulic acid ethyl ester 3β-(l-methionine)-11-oxo-olean-12-en-30-oate hydrochloride]	–	–	–	191 to 194 °C
COC(=O)/C=C/c1ccc(OC)c(OC(=O)[C@@]2(C)CC[C@]3(C)CC[C@]4(C)C(=CC(=O)[C@@H]5[C@@]6(C)CC[C@H](O)C(C)(C)[C@@H]6CC[C@]54C)[C@@H]3C2)c1 [Compound 21, Isoferulic acid methyl ester 3β-hydroxy-11-oxo-olean-12-en-30-oate]	7.31 ± 0.16 µM	18.6 ± 0.54 µM	8.54 ± 0.67 µM	215 to 217 °C
COC(=O)/C=C/c1ccc(OC(=O)[C@@]2(C)CC[C@]3(C)CC[C@]4(C)C(=CC(=O)[C@@H]5[C@@]6(C)CC[C@H](OC(=O)[C@@H](N)CCSC)C(C)(C)[C@@H]6CC[C@]54C)[C@@H]3C2)c(OC)c1 (as salt: hydrochloride) [Compound 41, Ferulic acid methyl ester 3β-(l-methionine)-11-oxo-olean-12-en-30-oate hydrochloride]	–	–	–	203 to 205 °C
CCOC(=O)/C=C/c1cccc(OC(=O)[C@@]2(C)CC[C@]3(C)CC[C@]4(C)C(=CC(=O)[C@@H]5[C@@]6(C)CC[C@H](O)C(C)(C)[C@@H]6CC[C@]54C)[C@@H]3C2)c1 [Compound 24, trans-3-Hydroxycinnamic acid ethyl ester 3β-hydroxy-11-oxo-olean-12-en-30-oate]	23.2 ± 1.07 µM	22.9 ± 0.68 µM	19.3 ± 0.98 µM	173 to 175 °C
COC(=O)/C=C/c1ccc(OC)c(OC(=O)[C@@]2(C)CC[C@]3(C)CC[C@]4(C)C(=CC(=O)[C@@H]5[C@@]6(C)CC[C@H](OC(=O)[C@@H](N)CCSC)C(C)(C)[C@@H]6CC[C@]54C)[C@@H]3C2)c1 (as salt: hydrochloride) [Compound 49, Isoferulic acid methyl ester 3β-(l-methionine)-11-oxo-olean-12-en-30-oate hydrochloride]	–	–	–	199 to 201 °C
CCOC(=O)/C=C/c1ccc(OC(=O)[C@@]2(C)CC[C@]3(C)CC[C@]4(C)C(=CC(=O)[C@@H]5[C@@]6(C)CC[C@H](O)C(C)(C)[C@@H]6CC[C@]54C)[C@@H]3C2)cc1 [Compound 20, trans-4-Hydroxycinnamic acid ethyl ester 3β-hydroxy-11-oxo-olean-12-en-30-oate]	14.5 ± 0.58 µM	28.4 ± 0.87 µM	24.4 ± 1.36 µM	195 to 196 °C
COC(=O)/C=C/c1ccc(OC)c(OC(=O)[C@@]2(C)CC[C@]3(C)CC[C@]4(C)C(=CC(=O)[C@@H]5[C@@]6(C)CC[C@H](OC(=O)[C@@H](N)CC[Se]C)C(C)(C)[C@@H]6CC[C@]54C)[C@@H]3C2)c1 (as salt: hydrochloride) [Compound 50, Isoferulic acid methyl ester 3β-(l-selenomethionine)-11-oxo-olean-12-en-30-oate hydrochloride]	–	–	–	201 to 203 °C
CCOC(=O)/C=C/c1cccc(OC(=O)[C@@]2(C)CC[C@]3(C)CC[C@]4(C)C(=CC(=O)[C@@H]5[C@@]6(C)CC[C@H](OC(=O)[C@@H](N)CC[Se]C)C(C)(C)[C@@H]6CC[C@]54C)[C@@H]3C2)c1 (as salt: hydrochloride) [Compound 56, trans-3-Hydroxycinnamic acid ethyl ester 3β-(l-selenomethionine)-11-oxo-olean-12-en-30-oate hydrochloride]	–	–	–	191 to 194 °C
COC(=O)/C=C/c1ccc(OC(=O)[C@@]2(C)CC[C@]3(C)CC[C@]4(C)C(=CC(=O)[C@@H]5[C@@]6(C)CC[C@H](OC(=O)[C@@H](N)CCSC)C(C)(C)[C@@H]6CC[C@]54C)[C@@H]3C2)cc1 (as salt: hydrochloride) [Compound 45, trans-4-Hydroxycinnamic acid methyl ester 3β-(l-methionine)-11-oxo-olean-12-en-30-oate hydrochloride]	–	–	–	205 to 207 °C
CCOC(=O)/C=C/c1ccc(OC)c(OC(=O)[C@@]2(C)CC[C@]3(C)CC[C@]4(C)C(=CC(=O)[C@@H]5[C@@]6(C)CC[C@H](O)C(C)(C)[C@@H]6CC[C@]54C)[C@@H]3C2)c1 [Compound 22, Isoferulic acid ethyl ester 3β-hydroxy-11-oxo-olean-12-en-30-oate]	9.41 ± 1.03 µM	21.1 ± 0.73 µM	19.3 ± 1.01 µM	210 to 213 °C
CCOC(=O)/C=C/c1ccc(OC)c(OC(=O)[C@@]2(C)CC[C@]3(C)CC[C@]4(C)C(=CC(=O)[C@@H]5[C@@]6(C)CC[C@H](OC(=O)[C@@H](N)CCSC)C(C)(C)[C@@H]6CC[C@]54C)[C@@H]3C2)c1 (as salt: hydrochloride) [Compound 51, Isoferulic acid ethyl ester 3β-(l-methionine)-11-oxo-olean-12-en-30-oate hydrochloride]	–	–	–	192 to 195 °C
CCOC(=O)/C=C/c1ccc(OC(=O)[C@@]2(C)CC[C@]3(C)CC[C@]4(C)C(=CC(=O)[C@@H]5[C@@]6(C)CC[C@H](OC(=O)[C@@H](N)CC[Se]C)C(C)(C)[C@@H]6CC[C@]54C)[C@@H]3C2)c(OC)c1 (as salt: hydrochloride) [Compound 44, Ferulic acid ethyl ester 3β-(l-selenomethionine)-11-oxo-olean-12-en-30-oate hydrochloride]	–	–	–	205 to 207 °C
COC(=O)/C=C/c1cccc(OC(=O)[C@@]2(C)CC[C@]3(C)CC[C@]4(C)C(=CC(=O)[C@@H]5[C@@]6(C)CC[C@H](OC(=O)[C@@H](N)CCSC)C(C)(C)[C@@H]6CC[C@]54C)[C@@H]3C2)c1 (as salt: hydrochloride) [Compound 53, trans-3-Hydroxycinnamic acid methyl ester 3β-(l-methionine)-11-oxo-olean-12-en-30-oate hydrochloride]	–	–	–	190 to 192 °C
CCOC(=O)/C=C/c1ccc(OC(=O)[C@@]2(C)CC[C@]3(C)CC[C@]4(C)C(=CC(=O)[C@@H]5[C@@]6(C)CC[C@H](OC(=O)[C@@H](N)CC[Se]C)C(C)(C)[C@@H]6CC[C@]54C)[C@@H]3C2)cc1 (as salt: hydrochloride) [Compound 48, trans-4-Hydroxycinnamic acid ethyl ester 3β-(l-selenomethionine)-11-oxo-olean-12-en-30-oate hydrochloride]	–	–	–	208 to 211 °C
